In assay [1] the test system is Plasmodium falciparum. Kind of assay: Antiparasitic activity against chloroquine-sensitive Plasmodium falciparum 3D7. Type of assay: functional, organism-based.
Assay [2] has as its system Plasmodium falciparum. Kind of assay: Antiparasitic activity against chloroquine-resistant Plasmodium falciparum K1. Type of assay: functional, organism-based.
For assay [3], the system named is Plasmodium falciparum. Kind of assay: Relative IC50 against Plasmodium falciparum K1 and 3D7. Type of assay: functional.
In assay [4] the test system is KB. Kind of assay: Cytotoxicity against human KB cells by alamar blue assay. Type of assay: functional, cell-based. To be noted: for CC50: read-out: TD50 (the source's name).
The subject of assay [5] is Plasmodium falciparum. The assay is described as follows: microbe, parasite or virus in culture. Conditions: 3 h.
Description: Antiparasitic activity against chloroquine-sensitive Plasmodium falciparum by [3H]hypoxanthine incorporation
Assay [6] concerns Plasmodium berghei. Kind of assay: Reduced parasitemia in Plasmodium berghei ANKA infected BALB/c mice (Mus musculus) at 21 mg/kg intraperitoneal dose after 4 days. It is filed as functional. Also noted: scale not given: the % may be the effect or the level left.
Assay [7] deals with Plasmodium berghei. Kind of assay: Antimalarial 95% clearance activity against Plasmodium berghei ANKA infected BALB/c mice (Mus musculus) at 21 mg/kg intraperitoneal dose after 4 days. Type of assay: functional.
The subject of assay [8] is Plasmodium berghei. The assay is described as follows: Antimalarial activity against Plasmodium berghei ANKA infected BALB/c mice (Mus musculus) at 21 mg/kg intraperitoneal dose after 4 days. Type of assay: functional. Conditions: ip, 96 h.
The subject of assay [9] is Plasmodium berghei. The assay is described as follows: Reduced parasitemia in Plasmodium berghei ANKA infected BALB/c mice (Mus musculus) at 30 mg/kg intraperitoneal dose after 4 days. Type of assay: functional. Also noted: scale not given: the % may be the effect or the level left.
Assay [10] relates to Plasmodium berghei. Kind of assay: Antimalarial 95% clearance activity against Plasmodium berghei ANKA infected BALB/c mice (Mus musculus) at 30 mg/kg intraperitoneal dose after 4 days. It is filed as functional.
Assay [11] relates to Plasmodium berghei. The assay is described as follows: Antimalarial activity against Plasmodium berghei ANKA infected BALB/c mice (Mus musculus) at 30 mg/kg intraperitoneal dose after 4 days. To be noted: ip, 96 h. Type of assay: functional.
The subject of assay [12] is Plasmodium berghei. Kind of assay: Reduced parasitemia in Plasmodium berghei ANKA infected BALB/c mice (Mus musculus) at 10 mg/kg peroral dose after 4 days. It is filed as functional. Also noted: scale not given: the % may be the effect or the level left. To be noted: route oral.
Assay [13] concerns Plasmodium berghei. Kind of assay: Antimalarial activity against Plasmodium berghei ANKA infected BALB/c mice (Mus musculus) at 10 mg/kg peroral dose after 4 days. It is filed as functional. Conditions: 96 h, route oral.

Experimental findings from ChEMBL document CHEMBL1142355, “Antimalarial dual drugs based on potent inhibitors of glutathione reductase from Plasmodium falciparum” (J Med Chem, 2008) are described below.

For the compound `CC(C)(C)NCCNc1ccnc2cc(Cl)ccc12`, the IC50 (commonly the concentration needed to halve the response being measured) in [1] stood at 21.2 nM; in assay [2], 128 nM. For the same compound, the “Ratio IC50” value in [3] is recorded as 6. Also, in assay [4], the CC50 came out at 143 µM.
For the compound `CCN(CC)Cc1cc(Nc2ccnc3cc(Cl)ccc23)ccc1O.Cl`, the concentration for half-maximal inhibition (IC50) was 6.4 nM in assay [2] and 9.5 nM in assay [5]. Besides, in assay [3], the “Ratio IC50” value is reported as 0.6.
On to `COc1c(C)c(CN(CCNc2ccnc3cc(Cl)ccc23)C(C)C)c(OC)c2ccccc12`, for which the values for the IC50 in [1] and in assay [2] were 83.7 nM and 105 nM, respectively. Moreover, the CC50 in assay [4] stood at 85.8 µM.
For `COc1cc(CN(CCNc2ccnc3cc(Cl)ccc23)CC(C)(C)C)c(OC)c2ccccc12`, in that order: 237 nM, 154 nM and 8.8 µM.
Regarding `CCN(CC)Cc1cc(Nc2ccnc3cc(Cl)ccc23)ccc1OCc1c(C(F)(F)F)c(OC)c2ccccc2c1OC`, the IC50 in [1] and in [2] was 32 nM in each case. Moreover, the “Ratio IC50” value in assay [3] stood at 1. For the same compound, in assay [4], the CC50 turned out to be 15 µM.
Consider `COc1c(C)c(CCCCCC(=O)N(CCNc2ccnc3cc(Cl)ccc23)C(C)C)c(OC)c2ccccc12`, for which the concentration for half-maximal inhibition (IC50) in [1] was 52.8 nM; in assay [2] it was 302 nM. Besides, the “Ratio IC50” value in assay [3] amounted to 5.7. The CC50 in [4] was determined as 6.9 µM.
Consider `COc1cc(CNCCNc2ccnc3cc(Cl)ccc23)c(OC)c2ccccc12`, for which the values for the IC50 in assay [1] and in [2] were 23.7 nM and 28.4 nM, respectively. Also, the CC50 in assay [4] amounted to 3.8 µM.
Take `Clc1ccc2c(N3CC3)ccnc2c1`: the IC50 in [1] turned out to be 16000 nM; in assay [2], 39200 nM. Moreover, in assay [3], the “Ratio IC50” value worked out at 2.4. Also, the CC50 in assay [4] was found to be 102 µM.
Consider `COc1c(CNCCNc2ccnc3cc(Cl)ccc23)c(C(F)(F)F)c(OC)c2ccccc12`, for which the figures for the half-maximal inhibitory concentration (IC50) in [1] and in [2] were 128 nM and 16 nM, respectively. Moreover, the CC50 in assay [4] came out at 28.5 µM.
In the same order, the values of `COc1cc(CN(CCNc2ccnc3cc(Cl)ccc23)CC(C)C)c(OC)c2ccccc12` are 146 nM, 188 nM and 43.8 µM.
On to `CC1=C(CCCCCC(=O)NCCNc2ccnc3cc(Cl)ccc23)C(=O)c2ccccc2C1=O`, for which the IC50 in [1] was determined as 184 nM; in [2], 367 nM. In assay [3], the “Ratio IC50” value turned out to be 2. Further, the CC50 in [4] was 22.2 µM.
Take `COc1c(C)c(CN(CCNc2ccnc3cc(Cl)ccc23)CC(C)C)c(OC)c2ccccc12`: the IC50 was 183 nM in assay [1] and 40.6 nM in [2]. In addition, the CC50 in assay [4] stood at 30.6 µM.
`COc1cc(CN(CCNc2ccnc3cc(Cl)ccc23)C(C)C)c(OC)c2ccccc12`: the IC50 in assay [1] turned out to be 517 nM; in [2] it was 345 nM; in [4], 67 µM.
`COc1c(CN(CCNc2ccnc3cc(Cl)ccc23)CC(C)C)c(C(F)(F)F)c(OC)c2ccccc12`: the IC50 in assay [1] turned out to be 162 nM; in [2], 198 nM. For the same compound, the CC50 in assay [4] was 11.9 µM.
For `COc1c(CN(CCNc2ccnc3cc(Cl)ccc23)C(C)C)c(C(F)(F)F)c(OC)c2ccccc12`, in that order: 184 nM, 299 nM and 35.4 µM.
In the same order, the values of `COc1c(C)c(CNCCNc2ccnc3cc(Cl)ccc23)c(OC)c2ccccc12` are 229 nM, 22.9 nM and 5.1 µM.
On to `CC(C)(C)CNCCNc1ccnc2cc(Cl)ccc12`, for which the IC50 in assay [1] is 20.6 nM; in [2], 6.8 nM. In addition, in [3], the “Ratio IC50” value is listed as 0.3. Further, the CC50 in assay [4] turned out to be 62.1 µM.
Regarding `COc1c(C)c(Cc2ccc(CC(=O)NCCNc3ccnc4cc(Cl)ccc34)cc2)c(OC)c2ccccc12`, the IC50 in assay [1] came out at 289 nM; in assay [2], 505 nM. Also, in assay [3], the “Ratio IC50” value is reported as 1.7. Also, the CC50 in assay [4] is 11.5 µM.
Take `COc1c(C)c(Cc2ccc(CC(=O)N(CCNc3ccnc4cc(Cl)ccc34)C(C)C)cc2)c(OC)c2ccccc12`: the IC50 in [1] was determined as 319 nM; in [2], 268 nM. In assay [3], the “Ratio IC50” value was 0.8. Further, the CC50 in assay [4] was found to be 1.7 µM.
In the same order, the values of `Clc1ccc2c(NCCNCC3CC3)ccnc2c1` are 2.7 nM, 145 nM, 53.7 and 71.9 µM.
In the same order, the values of `CC(C)NCCCNc1ccnc2cc(Cl)ccc12` are 3.6 nM, 144 nM, 40 and 47.9 µM.
In the same order, the values of `CC(C)NCCNc1ccnc2cc(Cl)ccc12` are 10.2 nM, 96.7 nM, 9.5 and 89.8 µM.
On to `COc1c(C)c(CN(CCNc2ccnc3cc(Cl)ccc23)CC(C)(C)C)c(OC)c2ccccc12`, for which the IC50 turned out to be 156 nM in [1] and 134 nM in assay [2]. Further, the CC50 in assay [4] worked out at 10.6 µM.
In the case of `CC(C)(C)NC(=O)CNc1ccnc2cc(Cl)ccc12`, the half-maximal inhibitory concentration (IC50) is 994 nM in assay [1] and 1440 nM in assay [2]. Moreover, the “Ratio IC50” value in [3] is on record as 1.4. Moreover, the CC50 in assay [4] was 194 µM.
On to `CC1=C(CCCCCC(=O)N(CCNc2ccnc3cc(Cl)ccc23)C(C)C)C(=O)c2ccccc2C1=O`, for which the IC50 in assay [1] is 7.5 nM; in assay [2], 9.4 nM. The “Ratio IC50” value in assay [3] stood at 1.1. Moreover, in assay [4], the CC50 was 37 µM. Moreover, the figures for the Activity in [6] and in assay [7] were 12.5% and 2.65%, respectively. At 21 mg/kg the inhibition in vivo in [8] was 18.2%.
`CC(=O)Nc1ccc(O)c(CN(CCCNc2ccnc3cc(Cl)ccc23)C(C)C)c1`: the IC50 was determined as 22.7 nM in assay [1] and 318 nM in assay [2]. Moreover, the CC50 in assay [4] came to 180 µM.
As for `CC(C)CNCCNc1ccnc2cc(Cl)ccc12`, the IC50 is 22.8 nM in assay [1] and 72 nM in assay [2]. Besides, the “Ratio IC50” value in assay [3] came out at 3.1. For the same compound, the CC50 in [4] amounted to 22.5 µM.
For `COc1c(COc2ccc(NC(C)=O)cc2)c(C(F)(F)F)c(OC)c2ccccc12`, in that order: 6440 nM, 15700 nM, 2.4 and above 715 µM.
`CC1=C(Cc2ccc(CC(=O)N(CCNc3ccnc4cc(Cl)ccc34)C(C)C)cc2)C(=O)c2ccccc2C1=O`: the figures for the 50% inhibitory concentration (IC50) in assay [1] and in assay [2] were 12.4 nM and 5.3 nM, respectively. Besides, the “Ratio IC50” value in assay [3] came out at 0.4. In assay [4], the CC50 was found to be 318 µM.
In the case of `COc1c(CN(CCNc2ccnc3cc(Cl)ccc23)CC(C)(C)C)c(C(F)(F)F)c(OC)c2ccccc12`, the IC50 in assay [1] was 146 nM; in [2], 116 nM. The CC50 in [4] came out at 12 µM.
`CC(C)(C)CNCCNc1ccnc2cc(Cl)ccc12.Cl`: the Activity in [9] is 0.86%; in assay [10], 0.31%. Besides, testing at 30 mg/kg in [11] gave an inhibition in vivo of 94.4%.
In the same order, the values of `COc1c(CNCCNc2ccnc3cc(Cl)ccc23)c(C(F)(F)F)c(OC)c2ccccc12.Cl` are 12.48%, 2.82% and 18.3%.
Consider `CO[C@H]1O[C@@H]2O[C@@]3(C)CC[C@H]4[C@H](C)CC[C@@H]([C@H]1C)[C@@]24OO3`, for which the IC50 in assay [5] worked out at 2.8 nM.
As to `NCCNc1ccnc2cc(Cl)ccc12`, the 50% inhibitory concentration (IC50) in [1] came out at 4.5 nM; in assay [2], 1800 nM. Also, in assay [3], the “Ratio IC50” value came to 400. In addition, in assay [4], the CC50 was 49.6 µM.
Consider `CC(=O)Nc1ccc(O)cc1` [ACETAMINOPHEN], for which the concentration for half-maximal inhibition (IC50) in assay [1] is above 198000 nM; in assay [2], 86700 nM. Moreover, in assay [3], the “Ratio IC50” value is recorded as below 0.4.
`C[C@@H]1CC[C@H]2[C@@H](C)C(=O)O[C@@H]3O[C@@]4(C)CC[C@@H]1[C@]32OO4` [ARTEMISININ] had an IC50 in assay [5] of 4.5 nM.
As for `CCN(CC)CCCC(C)Nc1ccnc2cc(Cl)ccc12` (stereo unspecified) [CHLOROQUINE], in [4], the CC50 was 127 µM. The Activity in assay [12] was determined as 0.13%. In assay [13], the inhibition in vivo (commonly the share of the control response that was lost under treatment) at 10 mg/kg worked out at 99.2%.
Compound `O[C@@H](c1cc(C(F)(F)F)nc2c(C(F)(F)F)cccc12)[C@H]1CCCCN1` [MEFLOQUINE] displayed an IC50 in [5] of 4.85 nM.
Same read-out and setting: next, `CN(C)c1ccc2nc3ccc(N(C)C)cc3[s+]c2c1` [METHYLENE BLUE ANHYDROUS]: 5.4 nM; `Clc1ccc2c(N3CCN(CCCN4CCN(c5ccnc6cc(Cl)ccc56)CC4)CC3)ccnc2c1` [PIPERAQUINE]: 14.6 nM.
As to `COc1cc([C@@H]2c3cc4c(cc3[C@H](O)[C@H]3COC(=O)[C@H]23)OCO4)cc(OC)c1OC` [PODOFILOX], in assay [4], the CC50 stood at 49.6 µM.
